Source: patent US5721267A, “Chemotherapeutic pyrrolocarbazole derivatives” (Syntex (U.S.A.) Inc., priority 1997, dated 1998)

Target: T1, β1 isozyme of PKC from rat brain (Rattus norvegicus, UniProt P68403)
T1 construct: β1 isozyme of PKC from rat brain; from tissue; host or cells: rat brain
Experiment: Protein kinase C inhibition assay (32P incorporation from γ-32P ATP into synthetic peptide substrate)
Type: biochemical
Settings: activated by 5×10^-6 M diC8 and 1 μg/mL phosphatidylserine, 50 μM ATP, read-out: IC50 (concentration necessary to achieve 50% inhibition of PKC)
Method: In vitro activity for protein kinase C inhibition, is quantitated by measuring incorporation of […] from γ-^32 P ATP into synthetic peptide substrates.
Protein Kinase C (PKC) inhibitory activity is quantitated by measuring incorporation of ^32 P from γ-^32 P ATP into synthetic peptide substrates. The inhibitory potential is measured using the β1 isozyme of PKC from rat brain and the synthetic peptide substrate ala-lys-arg-arg-arg-leu-ser-ser-leu-arg-ala.
A reaction mixture containing 25 mM Tris-HCl, pH 7.5, 2.5 mM Mg(NO3), 1.0 mM EGTA, 20 μM substrate, 1 μg/mL phosphatidlserine (PS), 5×10 ^-6 M diacylglycerol(di-C8), and 50 μM ATP is spiked with γ-^32 P ATP (>5,000 Ci/mmol) to provide approximately 10^6 CPM per reaction and 0.08 μg/mL PKC in a 50 μl volume per well. The assay is run with or without test compound, added at various concentrations. After five minutes incubation at room temperature, the reaction is stopped by the addition of 0.2V of a 50% TCA solution. A 30 μl sample from each well (control and test compound) is then spotted onto Whatman P-81 ion exchange chromatography paper, and 32-P incorporation is then counted on a Beckman LS 5000 TA liquid scintillation counter. […]
% Inhibition=1.0 -[(sample CPM-basal CPM)/(total CPM-basal CPM)]×100 and the concentration necessary to achieve 50% Inhibition is determined.

T1 sequence (P68403 whole entry): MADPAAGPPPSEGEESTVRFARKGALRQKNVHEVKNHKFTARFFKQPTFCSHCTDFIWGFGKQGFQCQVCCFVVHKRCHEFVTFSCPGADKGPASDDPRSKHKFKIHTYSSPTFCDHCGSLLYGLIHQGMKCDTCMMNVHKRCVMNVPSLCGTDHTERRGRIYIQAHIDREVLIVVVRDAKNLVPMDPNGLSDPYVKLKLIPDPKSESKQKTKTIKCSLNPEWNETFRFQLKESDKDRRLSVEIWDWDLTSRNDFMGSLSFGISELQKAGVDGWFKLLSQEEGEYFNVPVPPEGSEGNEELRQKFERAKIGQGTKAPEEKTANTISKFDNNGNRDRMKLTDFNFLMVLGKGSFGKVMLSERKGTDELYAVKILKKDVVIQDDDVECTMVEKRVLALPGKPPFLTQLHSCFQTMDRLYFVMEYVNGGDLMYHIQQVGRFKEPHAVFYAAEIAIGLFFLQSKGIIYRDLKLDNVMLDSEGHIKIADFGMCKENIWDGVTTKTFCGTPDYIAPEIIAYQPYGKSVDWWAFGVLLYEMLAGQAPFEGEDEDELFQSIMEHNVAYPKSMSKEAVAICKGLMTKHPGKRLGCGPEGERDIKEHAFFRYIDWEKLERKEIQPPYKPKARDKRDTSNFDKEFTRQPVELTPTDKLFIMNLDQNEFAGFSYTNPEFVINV

CNCCCn1c2ccccc2c2c3c(c(-c4ccsc4)cc21)C(=O)NC3=O [1,3-dioxo-6-(3-methylaminopropyl)-1,2,3,6-tetrahydro-4-(thiophen-3-yl)-pyrrolo[3,4-c]carbazole]
IC50: 30 nM
